What was measured:
[1] = tested on: antibodies in sera from SARS patients (sera 1a, 1b, 2, 6, 37, 62, London, SARS-yellow, SARS-green); type: binding, human; design: Binding of serum 6 to linear peptides of protein X1 of SARS-CoV Urbani / Binding of serum 37 to linear peptides of protein X1 of SARS-CoV Urbani / Binding of serum 6 to looped/cyclic peptide (PEPSCAN-ELISA) / Binding of serum 37 to looped/cyclic peptide (PEPSCAN-ELISA) / Binding of serum 37 to looped/cyclic peptides of protein X1 of SARS-CoV Urbani / Binding of serum 6 to linear peptides of protein X2 / Binding of serum 37 to linear peptides of protein X2 / Binding of serum 37 to looped/cyclic peptides of protein X2 of SARS-CoV Urbani / Binding of serum 6 to linear peptides of protein M of SARS-CoV Urbani / Binding of serum 37 to linear peptides of protein M of SARS-CoV Urbani / Binding of serum 6 to looped/cyclic peptides of protein M of SARS-CoV Urbani / Binding of serum 37 to looped/cyclic peptides of protein M of SARS-CoV Urbani / Binding of serum 6 to linear peptides of protein X3 of SARS-CoV Urbani / Binding of serum 37 to linear peptides of protein X3 of SARS-CoV Urbani / Binding of serum 37 to looped/cyclic peptides of protein X3 of SARS-CoV Urbani / Binding of serum 6 to linear peptides of protein X4 of SARS-CoV Urbani / Binding of serum 37 to linear peptides of protein X4 of SARS-CoV Urbani / Binding of serum 37 to looped/cyclic peptides of protein X4 of SARS-CoV Urbani / Binding of serum 6 to linear peptides of protein X5 of SARS-CoV Urbani / Binding of serum 37 to linear peptides of protein X5 of SARS-CoV Urbani / Binding of serum 37 to looped/cyclic peptides of protein X5 of SARS-CoV Urbani / Binding of serum 6 to linear peptides of protein N of SARS-CoV Urbani / Binding of serum 37 to linear peptides of protein N of SARS-CoV Urbani / Binding of serum 6 to linear peptide (PEPSCAN-ELISA) / Binding of serum 1a to looped/cyclic peptides of protein N of SARS-CoV Urbani / Binding of serum 1b to looped/cyclic peptides of protein N of SARS-CoV Urbani / Binding of serum 2 to looped/cyclic peptides of protein N of SARS-CoV Urbani / Binding of serum 6 to looped/cyclic peptides of protein N of SARS-CoV Urbani / Binding of serum 37 to looped/cyclic peptides of protein N of SARS-CoV Urbani / Binding of serum 62 to looped/cyclic peptides of protein N of SARS-CoV Urbani / Binding of serum London to looped/cyclic peptides of protein N of SARS-CoV Urbani / Binding of serum SARS-green to looped/cyclic peptides of protein N of SARS-CoV Urbani: unit not given here
[2] = tested on: control sera (pooled serum of ten healthy LUMC hospital workers; commercial negative donor pooled serum from the Dutch bloodbank); type: binding, human; design: Binding of Control serum LUMC to linear peptides / Binding of Control serum Blood-bank to linear peptides / Binding of Control serum LUMC to looped peptides / Binding of Control Serum Blood-Bank to Looped peptides / Binding of Control serum LUMC to linear peptides of the protein M of SARS-CoV Urbani / Binding of Control serum Blood-bank to linear peptides of the protein M of SARS-CoV Urbani / Binding of Control serum LUMC to looped peptides of the protein M of SARS-CoV Urbani / Binding of Control Serum Blood-Bank to Looped peptides of the protein M of SARS-CoV Urbani: unit not given here
[3] = tested on: rabbit serum obtained by immunizing a rabbit with the SARS-CoV strain Frankfurt 1; type: binding; design: Binding of a rabbit serum to linear peptides / Binding of a rabbit serum to looped peptides / Rabbit serum linear peptides / Rabbit serum looped peptides / Binding of a rabbit serum to linear peptides of protein N of SARS-CoV Urbani (Rabbit serum linear peptides) / Binding of a rabbit serum to looped/cyclic peptides of protein N of SARS-CoV Urbani (Rabbit serum looped peptides): unit not given here

## LVFLILCFTIKRKTE
[1]
  Binding of serum 1a to linear peptides of protein X4 of SARS-CoV Urbani: 0.7
  Binding of serum 1a to looped/cyclic peptides of protein X4 of SARS-CoV Urbani: 0.7
  Binding of serum 1b to linear peptides of protein X4 of SARS-CoV Urbani: 0.6
  Binding of serum 1b to looped/cyclic peptides of protein X4 of SARS-CoV Urbani: 0.4
  Binding of serum 2 to linear peptides of protein X4 of SARS-CoV Urbani: 0.5
  Binding of serum 2 to looped/cyclic peptides of protein X4 of SARS-CoV Urbani: 0.6
  Binding of serum 6 to linear peptides of protein X4 of SARS-CoV Urbani: 0.7
  Binding of serum 6 to looped/cyclic peptides of protein X4 of SARS-CoV Urbani: 0.7
  Binding of serum 37 to linear peptides of protein X4 of SARS-CoV Urbani: 0.7
  Binding of serum 37 to looped/cyclic peptides of protein X4 of SARS-CoV Urbani: 0.6
  Binding of serum 62 to linear peptides of protein X4 of SARS-CoV Urbani: 0.8
  Binding of serum 62 to looped/cyclic peptides of protein X4 of SARS-CoV Urbani: 0.7
  Binding of serum London to linear peptides of protein X4 of SARS-CoV Urbani: 0.8
  Binding of serum London to looped/cyclic peptides of protein X4 of SARS-CoV Urbani: 0.4
  Binding of serum SARS-green to linear peptides of protein X4 of SARS-CoV Urbani: 0.7
  Binding of serum SARS-green to looped/cyclic peptides of protein X4 of SARS-CoV Urbani: 0.2
  Binding of serum SARS-yellow to linear peptides of protein X4 of SARS-CoV Urbani: 0.6
  Binding of serum SARS-yellow to looped/cyclic peptides of protein X4 of SARS-CoV Urbani: 0.7
[2]
  Binding of Control Serum Blood-Bank to Looped peptides: 0.8
  Binding of Control serum Blood-bank to linear peptides: 0.8
  Binding of Control serum LUMC to linear peptides: 0.6
  Binding of Control serum LUMC to looped peptides: 0.6
[3]
  Rabbit serum linear peptides: 0.5
  Rabbit serum looped peptides: 0.6

## AALVFLILCFTIKRK
[1]
  Binding of serum 1a to linear peptides of protein X4 of SARS-CoV Urbani: 0.7
  Binding of serum 1a to looped/cyclic peptides of protein X4 of SARS-CoV Urbani: 0.8
  Binding of serum 1b to linear peptides of protein X4 of SARS-CoV Urbani: 0.8
  Binding of serum 1b to looped/cyclic peptides of protein X4 of SARS-CoV Urbani: 0.5
  Binding of serum 2 to linear peptides of protein X4 of SARS-CoV Urbani: 0.6
  Binding of serum 2 to looped/cyclic peptides of protein X4 of SARS-CoV Urbani: 0.7
  Binding of serum 6 to linear peptides of protein X4 of SARS-CoV Urbani: 0.8
  Binding of serum 6 to looped/cyclic peptides of protein X4 of SARS-CoV Urbani: 0.7
  Binding of serum 37 to linear peptides of protein X4 of SARS-CoV Urbani: 0.8
  Binding of serum 37 to looped/cyclic peptides of protein X4 of SARS-CoV Urbani: 0.6
  Binding of serum 62 to linear peptides of protein X4 of SARS-CoV Urbani: 0.8
  Binding of serum 62 to looped/cyclic peptides of protein X4 of SARS-CoV Urbani: 0.7
  Binding of serum London to linear peptides of protein X4 of SARS-CoV Urbani: 0.8
  Binding of serum London to looped/cyclic peptides of protein X4 of SARS-CoV Urbani: 0.5
  Binding of serum SARS-green to linear peptides of protein X4 of SARS-CoV Urbani: 0.7
  Binding of serum SARS-green to looped/cyclic peptides of protein X4 of SARS-CoV Urbani: 0.4
  Binding of serum SARS-yellow to linear peptides of protein X4 of SARS-CoV Urbani: 0.7
  Binding of serum SARS-yellow to looped/cyclic peptides of protein X4 of SARS-CoV Urbani: 0.5
[2]
  Binding of Control Serum Blood-Bank to Looped peptides: 0.8
  Binding of Control serum Blood-bank to linear peptides: 0.9
  Binding of Control serum LUMC to linear peptides: 0.7
  Binding of Control serum LUMC to looped peptides: 0.6
[3]
  Rabbit serum linear peptides: 0.8
  Rabbit serum looped peptides: 0.6

## MTTVYHITVSQIQLS
[1]
  Binding of serum 1a to linear peptides of protein X2: 0.7
  Binding of serum 1a to looped/cyclic peptides of protein X2 of SARS-CoV Urbani: 0.5
  Binding of serum 1b to linear peptides of protein X2: 0.6
  Binding of serum 1b to looped/cyclic peptides of protein X2 of SARS-CoV Urbani: 0.5
  Binding of serum 2 to linear peptides of protein X2: 0.5
  Binding of serum 2 to looped/cyclic peptides of protein X2 of SARS-CoV Urbani: 0.3
  Binding of serum 6 to linear peptides of protein X2: 0.5
  Binding of serum 6 to looped/cyclic peptides of protein X2 of SARS-CoV Urbani: 0.3
  Binding of serum 37 to linear peptides of protein X2: 0.6
  Binding of serum 37 to looped/cyclic peptides of protein X2 of SARS-CoV Urbani: 0.5
  Binding of serum 62 to linear peptides of protein X2: 0.5
  Binding of serum 62 to looped/cyclic peptides of protein X2 of SARS-CoV Urbani: 0.6
  Binding of serum London to linear peptides of protein X2: 0.5
  Binding of serum London to looped/cyclic peptides of protein X2 of SARS-CoV Urbani: 0.2
  Binding of serum SARS-green to linear peptides of protein X2: 0.2
  Binding of serum SARS-green to looped/cyclic peptides of protein X2 of SARS-CoV Urbani: 0.4
  Binding of serum SARS-yellow to linear peptides of protein X2: 0.6
  Binding of serum SARS-yellow to looped/cyclic peptides of protein X2 of SARS-CoV Urbani: 0.4
[2]
  Binding of Control Serum Blood-Bank to Looped peptides: 0.6
  Binding of Control serum Blood-bank to linear peptides: 0.6
  Binding of Control serum LUMC to linear peptides: 0.6
  Binding of Control serum LUMC to looped peptides: 0.5
[3]
  Binding of a rabbit serum to linear peptides: 0.7
  Binding of a rabbit serum to looped peptides: 0.4

## GIENATFFIFNKLVK
[1]
  Binding of serum 1a to linear peptides of protein X1 of SARS-CoV Urbani: 0.6
  Binding of serum 1a to looped/cyclic peptides of protein X1 of SARS-CoV Urbani: 0.6
  Binding of serum 1b to linear peptides of protein X1 of SARS-CoV Urbani: 0.5
  Binding of serum 1b to looped/cyclic peptides of protein X1 of SARS-CoV Urbani: 0.4
  Binding of serum 2 to linear peptides of protein X1 of SARS-CoV Urbani: 0.5
  Binding of serum 2 to looped/cyclic peptides of protein X1 of SARS-CoV Urbani: 0.5
  Binding of serum 6 to linear peptides of protein X1 of SARS-CoV Urbani: 0.5
  Binding of serum 6 to looped/cyclic peptides of protein X1 of SARS-CoV Urbani: 0.5
  Binding of serum 37 to linear peptides of protein X1 of SARS-CoV Urbani: 0.6
  Binding of serum 37 to looped/cyclic peptides of protein X1 of SARS-CoV Urbani: 0.6
  Binding of serum 62 to linear peptides of protein X1 of SARS-CoV Urbani: 0.6
  Binding of serum 62 to looped/cyclic peptides of protein X1 of SARS-CoV Urbani: 0.6
  Binding of serum London to linear peptides of protein X1 of SARS-CoV Urbani: 0.3
  Binding of serum London to looped/cyclic peptides of protein X1 of SARS-CoV Urbani: 0.2
  Binding of serum SARS-green to linear peptides of protein X1 of SARS-CoV Urbani: 0.2
  Binding of serum SARS-green to looped/cyclic peptides of protein X1 of SARS-CoV Urbani: 0.2
  Binding of serum SARS-yellow to linear peptides of protein X1 of SARS-CoV Urbani: 0.5
  Binding of serum SARS-yellow to looped/cyclic peptides of protein X1 of SARS-CoV Urbani: 0.5
[2]
  Binding of Control Serum Blood-Bank to Looped peptides: 0.5
  Binding of Control serum Blood-bank to linear peptides: 0.6
  Binding of Control serum LUMC to linear peptides: 0.5
  Binding of Control serum LUMC to looped peptides: 0.5
[3]
  Binding of a rabbit serum to linear peptides: 0.1
  Binding of a rabbit serum to looped peptides: 0.6

## AMACIVGLMWLSYFV
[1]
  Binding of serum 1a to linear peptides of protein M of SARS-CoV Urbani: 0.7
  Binding of serum 1a to looped/cyclic peptides of protein M of SARS-CoV Urbani: 0.7
  Binding of serum 1b to linear peptides of protein M of SARS-CoV Urbani: 0.5
  Binding of serum 1b to looped/cyclic peptides of protein M of SARS-CoV Urbani: 0.7
  Binding of serum 2 to linear peptides of protein M of SARS-CoV Urbani: 0.6
  Binding of serum 2 to looped/cyclic peptides of protein M of SARS-CoV Urbani: 0.6
  Binding of serum 6 to linear peptides of protein M of SARS-CoV Urbani: 0.4
  Binding of serum 6 to looped/cyclic peptides of protein M of SARS-CoV Urbani: 0.9
  Binding of serum 37 to linear peptides of protein M of SARS-CoV Urbani: 0.6
  Binding of serum 37 to looped/cyclic peptides of protein M of SARS-CoV Urbani: 0.6
  Binding of serum 62 to linear peptides of protein M of SARS-CoV Urbani: 0.6
  Binding of serum 62 to looped/cyclic peptides of protein M of SARS-CoV Urbani: 0.5
  Binding of serum London to linear peptides of protein M of SARS-CoV Urbani: 0.4
  Binding of serum London to looped/cyclic peptides of protein M of SARS-CoV Urbani: 0.2
  Binding of serum SARS-green to linear peptides of protein M of SARS-CoV Urbani: 0.2
  Binding of serum SARS-green to looped/cyclic peptides of protein M of SARS-CoV Urbani: 0.4
  Binding of serum SARS-yellow to linear peptides of protein M of SARS-CoV Urbani: 0.1
  Binding of serum SARS-yellow to looped/cyclic peptides of protein M of SARS-CoV Urbani: 0.6
[2]
  Binding of Control Serum Blood-Bank to Looped peptides of the protein M of SARS-CoV Urbani: 0.6
  Binding of Control serum Blood-bank to linear peptides of the protein M of SARS-CoV Urbani: 0.6
  Binding of Control serum LUMC to linear peptides of the protein M of SARS-CoV Urbani: 0.3
  Binding of Control serum LUMC to looped peptides of the protein M of SARS-CoV Urbani: 0.7
[3]
  Rabbit serum linear peptides: 0.4
  Rabbit serum looped peptides: 0.1

Source: patent US20070128217A1 (priority 2003, published 2007)
